Entries after “also recorded” stand apart in the source; their conditions may differ. Marks after values point to notes of the source that are not given here. Ends that are not written are not given here.
Assays:
HLAB*2705 = HLAB*2705 (Homo sapiens, UniProt P01889, D138H/D201E/E176V/E204Q/G107R/H137Y/K202T/N104T/N87E/Q56L/Q94K/R106L/R155S/R180L/S101D/S121N/S48T/Y140D/Y33H/Y91C); test: REVEAL MHC-peptide binding assay; conditions: for % Positive Control: REVEAL binding score relative to positive control peptide, pass threshold ≥45%
[1] = tested on: T cells of patients with AS; conditions: known from Kuon et al. 1997; cited from earlier work
Lewis rats = test: Immunization of Lewis rats with peptide in CFA (uveitis/arthritis); format: in vivo, rat; set-up: histol Average / Arthritis Total: scale not given here; conditions: for Arthritis Total / Arthritis day 25 / incidence / histol Average: 50 μg peptide/animal; for clin uveitis: 6 Lewis rats, 50 μg peptide/animal s.c. in CFA; for incidence: eyes with histological findings / eyes scored; for animals immunised that developed arthritis: groups of 6 animals, not HLA-B27 transgenics; for histol Average: histological uveitis score of eyes
Experimental: Animals: Lewis rats, age 6 weeks,
Peptides were emulsified (sonification) in CFA (50:50, CFA:Peptid) supplemented with M Tuberculosis H37RA (BD, Heidelberg, Germany) to a final concentration of 2.5 mg/ml
Peptide is injected s.c. in both hindlegs, 50 μg peptide/200 μl emulsion, 100 μl/leg,
Group size: 6 animals, 3 groups
7 days post immunization animals were examined daily (eyes and feet)
Eyes were embedded in tissue tec and frozen at −80 degree.
8 μm cryo section were stained with hematoxilin and graded.

Rats = test: Induction of oral tolerance in rats; format: in vivo, rat; conditions: for affected joints / average score/animal / incidence: 4 rats
PBMC = test: Ex vivo IFN-γ EliSpot assay; conditions: for IFN-γ response to individual peptide compared to the controls: one HLA B27 subject of 2 (B27004, B27007), p<0.001
[2] = PBS-fed 3 x, immunized with 100 μg peptide
[3] = fed 200 μg peptide 3 x, immunized with 100 μg of the same peptide

Question: Which “% Positive Control” value (HLAB*2705) does the source give for “8 (DRASFIKNL; Collagen peptide fragment) [Peptide 8]” here?
Answer: 0.04%

Question: And the “stimulation of T cells of patients with AS” value [1]?
Answer: stimulate T cells of patients with AS

Question: Which “% Positive Control” value (HLAB*2705) does the source give for “9 (SRHHAFCFR; Aggrecan peptide fragment) [Peptide 9]” here?
Answer: 0.02%

Question: What about the “stimulation of T cells of patients with AS” value [1] of the same molecule?
Answer: stimulate T cells of patients with AS

Question: With 10 (ARGQPGVMG) [Peptide 10] as the molecule, how does the “% Positive Control” value (HLAB*2705) read?
Answer: 1.06%

Question: For ARKLLLDNL [Peptide P2], which “% Positive Control” value (HLAB*2705) is on record?
Answer: 5.26%

Question: And the “Arthritis Total” value (Lewis rats)?
Answer: 8

Question: And the clin uveitis (Lewis rats)?
Answer: 0

Question: What about the “Arthritis day 25” value (Lewis rats) of the same molecule?
Answer: 8

Question: And the incidence (Lewis rats)?
Answer: 5/11*

Question: What about the “animals immunised that developed arthritis” value (Lewis rats) of the same molecule?
Answer: 5/6

Question: And the “histol Average” value (Lewis rats)?
Answer: 0.181

Question: And the affected joints (Rats; [2])?
Answer: 3

Question: And the average score/animal (Rats; [2])?
Answer: 1.875

Question: What about the incidence (Rats; [2]) of the same molecule?
Answer: 2/4

Question: What about the average score/animal (Rats; [3]) of the same molecule?
Answer: 3.25

Question: What about the incidence (Rats; [3]) of the same molecule?
Answer: 1/4

Question: What about the histological score (Rats; left eye of rat 1-3, PBS-fed, imm. P2D6) of the same molecule?
Answer: 2-3

Question: With “KRFNALQYL [human lumican residues 226-234]” as the molecule, how does the “% Positive Control” value (HLAB*2705) read?
Answer: 0.24%

Question: What about the “binding relative to the positive control peptides” value (HLAB*2705; in vitro MHC-peptide binding assay, HLA-B2705) of the same molecule?
Answer: significant binding

Question: What about the “Arthritis Total” value (Lewis rats) of the same molecule?
Answer: 3

Question: And the clin uveitis (Lewis rats)?
Answer: 0

Question: What about the “Arthritis day 25” value (Lewis rats) of the same molecule?
Answer: 0

Question: What about the incidence (Lewis rats) of the same molecule?
Answer: 3/12

Question: And the “histol Average” value (Lewis rats)?
Answer: 0.125

Question: Which “% Positive Control” value (HLAB*2705) does the source give for KRLAETLAL [compound 1, KRLAETLAL] here?
Answer: 105.51%

Question: With “LQNNLIETI (Fragment of keratocan protein)” as the molecule, how does the “IFN-γ response to individual peptide compared to the controls” value (from here on “IFN-γ response … compared to the controls”) (PBMC) read?
Answer: significant increase in response

Question: With LQYLRLSHN as the molecule, how does the “IFN-γ response … compared to the controls” value (PBMC) read?
Answer: significant increase in response

Question: For NRFSVAYML [Peptide P3], which “% Positive Control” value (HLAB*2705) is on record?
Answer: 0.00%

Question: What about the “Arthritis Total” value (Lewis rats) of the same molecule?
Answer: 4

Question: And the clin uveitis (Lewis rats)?
Answer: 0

Question: And the “Arthritis day 25” value (Lewis rats)?
Answer: 2

Question: What about the incidence (Lewis rats) of the same molecule?
Answer: 2/12

Question: What about the “histol Average” value (Lewis rats) of the same molecule?
Answer: 0.083

Question: And the affected joints (Rats; [2])?
Answer: 10

Question: What about the average score/animal (Rats; [2]) of the same molecule?
Answer: 2.75-3.00

Question: What about the incidence (Rats; [2]) of the same molecule?
Answer: 3/4

Question: What about the “induction of oral tolerance” value (Rats; compared with P2) of the same molecule?
Answer: induces oral tolerance more effectively than P2

Question: What about the affected joints (Rats; [3]) of the same molecule?
Answer: 0

Question: What about the average score/animal (Rats; [3]) of the same molecule?
Answer: 0

Question: What about the incidence (Rats; [3]) of the same molecule?
Answer: 0/4

Question: And the “development of arthritis or uveitis” value (Rats; rats fed with P3 and immunized with P3)?
Answer: None of the rats fed with P3 and immunized with P3 developed arthritis or uveitis; also recorded: None of the animals who received P3 had evidence of arthritis or uveitis

Question: For “QLEDIRLDG (A second opticin protein fragment)”, which “IFN-γ response … compared to the controls” value (PBMC) is on record?
Answer: significant increase in response

B1: Lumican: whole recombinant human lumican (protein, UniProt P51884 19-338, looked up)
Lumican: QYYDYDFPLSIYGQSSPNCAPECNCPESYPSAMYCDELKLKSVPMVPPGIKYLYLRNNQIDHIDEKAFENVTDLQWLILDHNLLENSKIKGRVFSKLKQLKKLHINHNNLTESVGPLPKSLEDLQLTHNKITKLGSFEGLVNLTFIHLQHNRLKEDAVSAAFKGLKSLEYLDLSFNQIARLPSGLPVSLLTLYLDNNKISNIPDEYFKRFNALQYLRLSHNELADSGIPGNSFNVSSLVELDLSYNKLKNIPTVNENLENYYLEVNQLEKFDIKSFCKILGPLSYSKIKHLRLDGNRISETSLPPDMYECLRVANEVTLN
Question: With B1 as the molecule, how does the “animals immunised that developed arthritis” value (Lewis rats) read?
Answer: all developed arthritis

Question: And the “patients demonstrating increased IFN-γ production” value (PBMC; HLA B27 AU patients)?
Answer: 8 of 10

Question: And the “Interferon gamma response, Patients (N = 10)” value (PBMC; number of HLA B27 AU patients responding, PBMC, 24 hours)?
Answer: 8

Question: And the “Interferon gamma response, Controls (N-6)” value (PBMC; number of healthy controls responding, PBMC, 24 hours)?
Answer: 2

Question: What about the “IFN-γ response of HLA B27 AU patients vs average of healthy controls” value (PBMC; ten patients vs controls n=6, one way ANOVA, Bonferroni, lumican 2.5 μg/mL) of the same molecule?
Answer: significant difference

Source: patent publication US10364277B2, “Diagnosis and treatment of autoimmune diseases” (NewSouth Innovations Pty Limited, priority 2013, dated 2019)
